The results in this text go back to US4479951A, “1.4;3.6-Dianhydrohexitol nitrates substituted by purine bases, processes for their preparation and pharmaceutical compositions” (Dr. Willmar Schwabe GmbH & Co., priority 1980, dated 1984).

Data set [1] deals with isolated rat aorta preparations. The experiment in a line: spasmolytic effectiveness, noradrenaline-induced contractions. To be noted: read-out: ED50 noradrenaline spasm.
The test system is the same in data set [2]. The experiment in a line: spasmolytic effectiveness, potassium chloride-induced contractions. As to conditions: read-out: ED50 potassium chloride spasm.
The test system of a further data set is guinea pigs. Put plainly: blood pressure-lowering effectiveness on narcotised guinea pigs, intravenous. Format: in vivo, guinea pig. To be noted: for blood pressure previously: before administration.
Data set [3] can be described thus: acute toxicity, intravenous. To be noted: mouse, in vivo, iv; within 24 hours; read-out: Evaluated LD50-range. The data set is classed as in vivo.
A further data set deals with female NMRI-albino mice. Put plainly: acute toxicity, intravenous. The data set is classed as in vivo. As to conditions: within 24 hours.

As to `Cn1c(=O)c2c(ncn2[C@H]2CO[C@H]3[C@@H]2OC[C@@H]3O[N+](=O)[O-])n(C)c1=O` [Example 12b, 5-(7-Theophyllinyl)-5-desoxy-1.4;3.6-dianhydro-L-iditol 2-nitrate], the IC50 in data set [1] amounted to 3.2 µM; in data set [2], 4.2 µM.
In the case of `CC(C)(C)C(=O)Nc1ncnc2c1ncn2[C@H]1CO[C@H]2[C@@H]1OC[C@@H]2O[N+](=O)[O-]` [Example 10, 5-[9-(6-N-Pivaloyl)-adenyl]-5-desoxy-1.4;3.6-dianhydro-L-iditol 2-nitrate], the IC50 in data set [1] was 0.302 µM; in data set [2] it was 6.5 µM.
What is called LD50 is the dose expected to kill half of the subjects tested. Turning to `CNc1ncnc2c1ncn2[C@H]1CO[C@H]2[C@@H]1OC[C@@H]2O[N+](=O)[O-]` [Example 3c, 5-(6-Methylaminopurin-9-yl)-5-desoxy-1.4;3.6-dianhydro-L-iditol 2-nitrate], the blood pressure afterwards with guinea pigs (0.25 mg/kg i.v.) was determined as 79.25 ± 2.56 mm. Hg; in the data set with guinea pigs (1.00 mg/kg i.v.), 71.50 ± 3.97 mm. Hg; in the data set on guinea pigs (2.50 mg/kg i.v.) it was 61.50 ± 3.23 mm. Hg. Further, the figures for the “blood pressure Δ” value in the data set with guinea pigs (0.25 mg/kg i.v.), in the data set on guinea pigs (1.00 mg/kg i.v.) and in the data set with guinea pigs (2.50 mg/kg i.v.) were -0.25 mm. Hg, -8.00 mm. Hg and -15.50 mm. Hg, respectively. In addition, the blood pressure previously came out at 79.50 ± 2.50 mm. Hg in the data set with guinea pigs (0.25 mg/kg i.v.), 79.50 ± 2.66 mm. Hg with guinea pigs (1.00 mg/kg i.v.) and 77.00 ± 2.80 mm. Hg with guinea pigs (2.50 mg/kg i.v.). Besides, the LD50 at 24 h in data set [3] lay within 100 to 200 mg/kg. Besides, the Frequency of death in the data set with female NMRI-albino mice (100 mg/kg i.v.) is on record as 0/6; in the data set on female NMRI-albino mice (200 mg/kg i.v.), 3/3. Further, the IC50 in data set [1] came to 0.48 µM; in data set [2], 4.6 µM.
Regarding `O=[N+]([O-])O[C@@H]1CO[C@H]2[C@@H]1OC[C@@H]2O` [ISMN, 1.4;3.6-dianhydro-D-glucitol 2-nitrate, reference compound], the blood pressure afterwards in the data set with guinea pigs (0.25 mg/kg i.v.) stood at 53.90 ± 3.10 mm. Hg; with guinea pigs (1.00 mg/kg i.v.), 48.40 ± 3.20 mm. Hg; with guinea pigs (2.50 mg/kg i.v.) it was 41.40 ± 3.90 mm. Hg. Further, the blood pressure previously in the data set with guinea pigs (0.25 mg/kg i.v.) is listed as 57.60 ± 3.10 mm. Hg; in the data set with guinea pigs (1.00 mg/kg i.v.), 54.70 ± 3.80 mm. Hg; with guinea pigs (2.50 mg/kg i.v.) it was 52.30 ± 4.80 mm. Hg.
As for `O=[N+]([O-])O[C@H]1CO[C@H]2[C@@H]1OC[C@@H]2n1cnc2c(N3CCCCC3)ncnc21` [Example 7b, 5-(6-Piperidinopurin-9-yl)-5-desoxy-1.4;3.6-dianhydro-L-iditol 2-nitrate], the IC50 in data set [1] came out at 0.24 µM; in data set [2], 2.9 µM.
`CN1CCN(c2ncnc3c2ncn3[C@H]2CO[C@H]3[C@@H]2OC[C@@H]3O[N+](=O)[O-])CC1` [Example 9b, 5-[6-(4-Methylpiperazino)-purin-9-yl]-5-desoxy-1.4;3.6-dianhydro-L-iditol 2-nitrate]: the values for the blood pressure afterwards with guinea pigs (0.25 mg/kg i.v.), in the data set with guinea pigs (1.00 mg/kg i.v.) and with guinea pigs (2.50 mg/kg i.v.) were 70.25 ± 8.39 mm. Hg, 69.75 ± 7.44 mm. Hg and 59.75 ± 4.82 mm. Hg, respectively. Besides, the entries for the “blood pressure Δ” value in the data set with guinea pigs (0.25 mg/kg i.v.), in the data set with guinea pigs (1.00 mg/kg i.v.) and with guinea pigs (2.50 mg/kg i.v.) were -2.25 mm. Hg, -3.50 mm. Hg and -12.75 mm. Hg, respectively. Further, the figures for the blood pressure previously in the data set with guinea pigs (0.25 mg/kg i.v.), in the data set with guinea pigs (1.00 mg/kg i.v.) and with guinea pigs (2.50 mg/kg i.v.) were 72.50 ± 6.20 mm. Hg, 73.25 ± 6.24 mm. Hg and 72.50 ± 5.24 mm. Hg, respectively. Moreover, the LD50 at 24 h in data set [3] was in the range of 50 to 100 mg/kg. Moreover, the Frequency of death is 4/6 with female NMRI-albino mice (100 mg/kg i.v.) and 3/3 with female NMRI-albino mice (200 mg/kg i.v.). Moreover, the IC50 in data set [1] is 2.65 µM; in data set [2] it was 25 µM.
As to `O=[N+]([O-])O[C@H]1CO[C@H]2[C@@H]1OC[C@@H]2n1cnc2c(N3CCOCC3)ncnc21` [Example 8b, 5-(6-Morpholinopurin-9-yl)-5-desoxy-1.4;3.6-dianhydro-L-iditol 2-nitrate], the IC50 in data set [1] came to 0.29 µM; in data set [2], 3 µM.
On to `O=[N+]([O-])O[C@H]1CO[C@H]2[C@@H]1OC[C@@H]2n1cnc2c(NCc3ccccc3)ncnc21` [Example 13b, 5-(6-Benzylaminopurin-9-yl)-5-desoxy-1.4;3.6-dianhydro-L-iditol 2-nitrate], for which the IC50 was determined as 0.0168 µM in data set [1] and 2.4 µM in data set [2].
Take `O=[N+]([O-])O[C@H]1CO[C@H]2[C@@H]1OC[C@@H]2n1cnc2c(N3CCCC3)ncnc21` [Example 6b, 5-(6-Pyrrolidinopurin-9-yl)-5-desoxy-1.4;3.6-dianhydro-L-iditol 2-nitrate]: the blood pressure afterwards came to 51.50 ± 4.94 mm. Hg with guinea pigs (0.25 mg/kg i.v.), 44.75 ± 2.84 mm. Hg in the data set on guinea pigs (1.00 mg/kg i.v.) and 37.25 ± 1.11 mm. Hg in the data set with guinea pigs (2.50 mg/kg i.v.). The “blood pressure Δ” value in the data set on guinea pigs (0.25 mg/kg i.v.) is recorded as -13.50 mm. Hg; with guinea pigs (1.00 mg/kg i.v.) it was -20.75 mm. Hg; in the data set with guinea pigs (2.50 mg/kg i.v.), -24.75 mm. Hg. Further, the blood pressure previously in the data set with guinea pigs (0.25 mg/kg i.v.) was 65.00 ± 4.02 mm. Hg; in the data set on guinea pigs (1.00 mg/kg i.v.), 65.50 ± 2.36 mm. Hg; in the data set on guinea pigs (2.50 mg/kg i.v.), 62.00 ± 2.04 mm. Hg. Also, in data set [3], the LD50 at 24 h fell in the range of 50 to 100 mg/kg. Besides, the results for the Frequency of death with female NMRI-albino mice (50 mg/kg i.v.), in the data set on female NMRI-albino mice (100 mg/kg i.v.) and with female NMRI-albino mice (200 mg/kg i.v.) were 0/3, 3/3 and 3/3, respectively. Also, the IC50 in data set [1] came to 0.54 µM; in data set [2], 4.07 µM.
As to `CN(C)c1ncnc2c1ncn2[C@H]1CO[C@H]2[C@@H]1OC[C@@H]2O[N+](=O)[O-]` [Example 4b, 5-(6-Dimethylaminopurin-9yl)-5-desoxy-1.4;3.6-dianhydro-L-iditol 2-nitrate], the results for the blood pressure afterwards in the data set with guinea pigs (0.25 mg/kg i.v.), in the data set on guinea pigs (1.00 mg/kg i.v.) and with guinea pigs (2.50 mg/kg i.v.) were 63.25 ± 4.23 mm. Hg, 59.00 ± 1.47 mm. Hg and 43.50 ± 2.50 mm. Hg, respectively. Besides, the “blood pressure Δ” value is reported as -10.50 mm. Hg with guinea pigs (0.25 mg/kg i.v.), -15.00 mm. Hg in the data set with guinea pigs (1.00 mg/kg i.v.) and -28.50 mm. Hg with guinea pigs (2.50 mg/kg i.v.). The blood pressure previously in the data set on guinea pigs (0.25 mg/kg i.v.) was determined as 73.75 ± 2.14 mm. Hg; with guinea pigs (1.00 mg/kg i.v.) it was 74.00 ± 1.91 mm. Hg; in the data set with guinea pigs (2.50 mg/kg i.v.), 72.00 ± 2.45 mm. Hg. In addition, in data set [3], the LD50 at 24 h was in the range of 50 to 100 mg/kg. For the same molecule, the Frequency of death is 0/3 in the data set on female NMRI-albino mice (50 mg/kg i.v.), 3/3 with female NMRI-albino mice (100 mg/kg i.v.) and 3/3 in the data set with female NMRI-albino mice (200 mg/kg i.v.). The IC50 in data set [1] was 0.22 µM; in data set [2], 29 µM.
In the case of `CCNc1ncnc2c1ncn2[C@H]1CO[C@H]2[C@@H]1OC[C@@H]2O[N+](=O)[O-]` [Example 5b, 5-(6-Ethylaminopurin-9-yl)-5-desoxy-1.4;3.6-dianhydro-L-iditol 2-nitrate], the blood pressure afterwards with guinea pigs (0.25 mg/kg i.v.) came to 71.00 ± 5.04 mm. Hg; with guinea pigs (1.00 mg/kg i.v.), 65.75 ± 3.75 mm. Hg; in the data set with guinea pigs (2.50 mg/kg i.v.) it was 51.00 ± 3.13 mm. Hg. The “blood pressure Δ” value is -5.50 mm. Hg in the data set with guinea pigs (0.25 mg/kg i.v.), -12.75 mm. Hg in the data set with guinea pigs (1.00 mg/kg i.v.) and -25.25 mm. Hg in the data set with guinea pigs (2.50 mg/kg i.v.). Also, the blood pressure previously in the data set with guinea pigs (0.25 mg/kg i.v.) amounted to 76.50 ± 2.66 mm. Hg; in the data set with guinea pigs (1.00 mg/kg i.v.), 78.50 ± 1.70 mm. Hg; in the data set with guinea pigs (2.50 mg/kg i.v.), 76.25 ± 2.59 mm. Hg. For the same molecule, in data set [3], the median lethal dose (LD50) at 24 h is 50 to 100 mg/kg. Further, the Frequency of death in the data set with female NMRI-albino mice (50 mg/kg i.v.) was 1/11; with female NMRI-albino mice (100 mg/kg i.v.), 3/6; in the data set on female NMRI-albino mice (200 mg/kg i.v.) it was 3/3. For the same molecule, the IC50 in data set [1] was 0.38 µM; in data set [2], 13 µM.
